Experiment [1] deals with T1, human mineralocorticoid receptor (MR) (Homo sapiens, UniProt P08235).
T1 construct: expressed in transfected cells; host or cells: HEK293, transient transfection, CMV promoter plasmid
T1 sequence (P08235 1-984): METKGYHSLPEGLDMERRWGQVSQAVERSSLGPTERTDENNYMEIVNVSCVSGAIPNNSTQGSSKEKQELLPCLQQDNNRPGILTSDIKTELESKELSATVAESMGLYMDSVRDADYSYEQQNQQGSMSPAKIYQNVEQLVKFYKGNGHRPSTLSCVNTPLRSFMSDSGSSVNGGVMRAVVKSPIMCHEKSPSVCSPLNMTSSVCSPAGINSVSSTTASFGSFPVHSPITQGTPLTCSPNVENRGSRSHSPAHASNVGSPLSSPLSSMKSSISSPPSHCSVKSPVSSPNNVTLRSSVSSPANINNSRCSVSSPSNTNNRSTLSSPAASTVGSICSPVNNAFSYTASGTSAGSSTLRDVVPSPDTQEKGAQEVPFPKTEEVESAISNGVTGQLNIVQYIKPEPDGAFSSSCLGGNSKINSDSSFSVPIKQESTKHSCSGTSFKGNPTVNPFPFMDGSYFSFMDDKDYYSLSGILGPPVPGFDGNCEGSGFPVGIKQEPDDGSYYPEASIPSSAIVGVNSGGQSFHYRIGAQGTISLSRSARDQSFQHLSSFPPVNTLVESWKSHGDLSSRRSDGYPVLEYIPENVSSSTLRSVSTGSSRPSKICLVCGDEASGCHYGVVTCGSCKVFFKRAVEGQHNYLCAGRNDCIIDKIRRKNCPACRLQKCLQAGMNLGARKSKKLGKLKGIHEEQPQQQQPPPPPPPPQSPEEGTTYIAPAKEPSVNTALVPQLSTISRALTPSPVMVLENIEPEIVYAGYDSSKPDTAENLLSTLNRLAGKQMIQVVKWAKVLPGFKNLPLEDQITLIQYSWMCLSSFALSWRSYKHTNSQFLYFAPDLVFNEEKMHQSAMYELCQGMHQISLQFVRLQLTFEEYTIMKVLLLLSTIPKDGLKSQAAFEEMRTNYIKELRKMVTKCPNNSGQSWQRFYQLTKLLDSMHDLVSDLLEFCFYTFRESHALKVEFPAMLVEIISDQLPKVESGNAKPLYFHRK
The experiment can be described thus: Nuclear hormone receptor functional modulation assay (GRE-luciferase reporter, HEK293), MR. Format: cell-based. Particulars: agonist mode, mean of n=4 or 5. From the text: The solvents, reagents, and ligands employed in the functional assay are readily available from commercial sources, or can be prepared by one of ordinary skill in the art.
Human embryonic kidney HEK293 cells are transfected with steroid hormone receptor and reporter gene plasmids using Fugene™ transfection reagent. Briefly, the reporter plasmid containing two copies of probasin ARE and TK(thymidine kinase) promoter upstream of the luciferase reporter cDNA, is transfected into HEK293 cells with a plasmid constitutively expressing human androgen receptor (AR) using viral CMV(cytomegalovirus) promoter. The reporter plasmid containing two copies of GRE and TK promoter upstream of the luciferase reporter cDNA is transfected with a plasmid constitutively expressing either human glucocorticoid receptor (GR), human mineralocorticoid receptor (MR), or human progesterone receptor (PR) using viral CMV promoter. […] After 24-hours incubation with test compounds, cells are lysed and luciferase activity is determined using standard techniques.
Data are fitted to a four parameter-fit logistic curve fit to determine EC50 values. […] IC50 values may be determined similarly using antagonist mode assay data. Percent inhibitions may also be determined relative to the response in the presence of agonist alone, as described above.
(In general: In a reporter assay the amount or activity of a reporter protein is the signal.)

For experiment [2], the system named is IL-6 production in human skin fibroblast CCD-39SK cells. The experiment can be described thus: GR-mediated transrepression: IL-1β-stimulated IL-6 production in human skin fibroblast CCD-39SK cells. Format: cell-based. Particulars: IL-1β 1 ng/ml. As to the method: 1. IL-1,3-stimulated IL-6 Production in Human Skin Fibroblast CCD-39SK Cells:
Briefly, human skin fibroblast CCD-39SK cells (20,000 cells/well), obtained from ATCC are seeded in 96-well plates in […] growth medium supplemented with 10% FBS, 100 U/ml penicillin, 100 ug/ml streptomycin and 2 mmol/L L-glutamine. Cells are maintained in a humidified chamber with 5% CO2 at 37° C. Test compounds are added to the wells in various concentrations ranging from a final concentration of about […] to 4.64 μM. 0.1 μM of dexamethasone is used as a positive control. 1-hour post treatment with test compound, IL-1β is added at final concentration of 1 ng/ml; and the reaction mixture is incubated overnight. 10 μl of supernatant is removed from each well and IL-6 concentrations are determined using an ELISA kit, with IL-6 concentrations being quantified by reading absorbance at 450 nm.

Experiment [3] concerns TNF-α production in PMA-differentiated U937 cells. The experiment can be described thus: GR-mediated transrepression: LPS-stimulated TNF-α production in PMA-differentiated U937 cells. Format: cell-based, human. As to the method: 2. LPS-Stimulated TNF-α Production in PMA-Differentiated U937 Cells:
Human U937 pre-monocytic cells, obtained from ATCC, are grown in complete RPMI 1640 medium containing 10% FBS. To allow monocytes to differentiate to adherent macrophages, U937 cells are washed in calcium, magnesium free and resuspended in fresh RPMI medium containing 20 nM phorbol 12-myristate-13-acetate (PMA) overnight. After differentiation, test compounds are added to the cells in the 96-well plate at various concentrations ranging from about 4.65 pM to 4.64 μM. 1-hour post treatment with test compound, LPS is added at final concentration of 100 ng/ml and the reaction mixture is incubated overnight. 25 μl cell-free supernatant is transferred from each well to another 96-well plate and TNF-α production is measured using an ELISA kit with TNF-α being quantified by reading absorbance at 450 nm.

Consider 1 compound from patent US8101761B2, “(E)-N-{3-[1-(8-fluoro-11H-10-OXA-1-AZA-dibenzo [A,D] cyclohepten-5ylidene)-propyl]-phenyl}-methanesulfonamide as glucocorticoid receptor modulator for the treatment of rheumatoid arthritis” (Eli Lilly and Company, priority 2008, dated 2012).

Molecules are shown by their SMILES.

The EC50 is the concentration at which the effect is half-maximal. The IC50 is the midpoint of a concentration-inhibition curve. `CC/C(=C1\c2ccc(F)cc2OCc2ncccc21)c1cccc(NS(C)(=O)=O)c1` [Compound (I), (E)-N-{3-[1-(8-Fluoro-11H-10-oxa-1-aza-dibenzo[a,d]cyclohepten-5-ylidene)-propyl]-phenyl}-methanesulfonamide]: the “efficacy in activating transcription, MR” value in experiment [1] (relative to 30 nM aldosterone) is “about 11%”. The EC50 in experiment [1] (read-out: EC50 in activating transcription, MR) was greater than 10 µM. The IC50 in experiment [2] (Homo sapiens, Skin fibroblast, average of n=15, read-out: IC50, inhibition of IL-6 expression) was roughly 8.5 nM; in experiment [3] (Homo sapiens, U-937, LPS 100 ng/ml, average of n=4, read-out: IC50, inhibition of TNF-α expression) it was roughly 21 nM. Further, in experiment [2] (n=15), the “maximal inhibition of the endogenous expression of IL-6” value is no less than 90%. Moreover, in experiment [3] (LPS 100 ng/ml, n=4), the “maximal inhibition of the endogenous expression of TNF-α” value is recorded as no less than 90%.
